Assays:
PhoSL = molecular target: T1, PhoSL (Pholiota squarrosa, UniProt A0A384E107); experiment: NMR chemical shift titration; type: binding; conditions: 20 mM Tris-HCl pH 7.5, 0.2 mM DTT, 308 K; 50 μM peptide (as monomer); average for the two anomers
T1 construct: chemically synthesized 40-residue peptide, free termini, no tag, reduced Cys (DTT), homotrimer; […]; repeat 1 of a 180-residue polypeptide; differs from literature peptide at positions 23, 27, 35, 40

[1] = molecular target: the molecule itself; experiment: SEC; Superdex 75 10/300 with marker proteins; 96 μM PhoSL peptide; 20 mM Tris-HCl pH 7.5, 100 mM NaCl

Kd (PhoSL) [mM]	Molecule	stoichiometry N [1]
5.9 ± 0.2	C[C@@H]1OC(O)[C@@H](O)[C@H](O)[C@@H]1O (mixture of isomers) [L-fucose]	
	APVPVTKLVCDGDTYKCTAYLDYGDGKWVAQWDTAVFHTT (PhoSL lectin of Pholiota squarrosa; it corresponds to the first of three PhoSL-like repeats of the 180-residue polypeptide; numbers count on: the 40-residue peptide; No N-terminal acetylation and no C-terminal amidation; Cys10 and Cys17 were reduced (DTT) in the NMR samples; Homotrimer by gel filtration combined with cross-linking, and by the NMR structure; also called PhoSL trimer; source: …)	3
